Laboratory results reported in PubChem BioAssay (NCI).
“And” between values parts separate entries of the source, which are not always exact repeats. Equal entries are not always repeated.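 Each compound was tested at five concentrations against cells in 96-well plates for 48 hours. At the GI50, growth is halved. TGI: total growth inhibition.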

Key:
Assay in all cases: NCI tumour cell line growth inhibition, 48 h
[1] = system: A549 NSCLC
[2] = system: BT-549 breast
[3] = system: DU-145 prostate
[4] = system: HOP-62 NSCLC
[5] = system: KM12 colon
[6] = system: M14 melanoma
[7] = system: NCI-H460 lung
[8] = system: SF-539 CNS
[9] = system: SK-MEL-5 melanoma
[10] = system: SNB-75 CNS

| Compound | TGI [1] | TGI [2] | TGI [3] | TGI [4] | TGI [5] | TGI [6] | TGI [7] | TGI [8] | TGI [9] | TGI [10] | GI50 [1] | GI50 [2] | GI50 [3] | GI50 [4] | GI50 [5] | GI50 [6] | GI50 [7] | GI50 [8] | GI50 [9] | GI50 [10] |
| --- | --- | --- | --- | --- | --- | --- | --- | --- | --- | --- | --- | --- | --- | --- | --- | --- | --- | --- | --- | --- |
| Cc1ccc2nc3sc(=O)sc3nc2c1 | 29.6 µM | 28.7 µM | > 100 µM | 30.6 µM | 28.9 µM | 33.5 µM | 26.6 µM | 35.1 µM | 29.1 µM | 64.8 µM |  |  |  |  |  |  |  |  |  |  |
| Cc1ccc(C2NC(=S)N3C(c4ccc(C)cc4)NC(=S)N23)cc1 (stereo not drawn) | 20.1 µM | 23.7 µM | 13.6 µM | 20.1 µM | 17.4 µM | 11.2 µM | 13.1 µM | 13.7 µM | 14.3 µM | 12.1 µM | 5.82 µM | 10.3 µM | 3.62 µM | 5.89 µM | 4.04 µM | 3.01 µM | 3.82 µM | 4.12 µM | 3.88 µM | 2.87 µM |
| N#Cc1ccc(N2Cc3cc(Cl)ccc3OC3=C2C(=O)N(Cc2ccc(F)cc2)C3=O)cc1 | 23.2 µM | 0.356 µM | 1.45 µM | 10.1 µM | 6.59 µM | 9.33 µM | 3.71 µM | 1.07 µM | 2.94 µM | 1.72 µM | 7.34 µM | 0.174 µM | 0.662 µM | 2.72 µM | 1.83 µM | 2.81 µM | 1.02 µM | 0.557 µM | 1.26 µM | 0.558 µM |
| O=C1c2ccccc2-c2c1c1c(O)cccc1n2CCCc1ccccc1 | > 100 µM | 63.6 µM | > 100 µM | > 100 µM | > 100 µM | > 100 µM | > 100 µM | > 100 µM | 27.8 µM | > 100 µM | 9.61 µM | 16 µM | 28.1 µM | 43 µM | 4.54 µM | > 100 µM | 29.7 µM | 23.1 µM | 12.6 µM | 51.7 µM |
| Cc1ccc(-n2nnc3c(sc4ccccc43)c2=O)cc1 | > 100 µM | > 100 µM | > 100 µM | 26.5 µM | > 100 µM | > 100 µM | > 100 µM | 30.6 µM | > 100 µM | 16.3 µM | 5.23 µM | > 100 µM | 7.41 µM | 3.8 µM | 3.81 µM | > 100 µM | 4.19 µM | 5.23 µM | 28.1 µM | 3.08 µM |
| CCCCCCCCCCCCNC(=O)[C@H]1CSC(c2cc(Br)cs2)N1 (stereo partly drawn) | 14.1 µM | 1.78 µM | 2.5 µM | 1.56 µM | 2.37 µM | 1.65 µM | 1.99 µM | 1.87 µM | 11.8 µM | 1.56 µM | 6.99 µM | 0.894 µM | 1.11 µM | 0.822 µM | 1.05 µM | 0.858 µM | 0.991 µM | 0.95 µM | 5.57 µM | 0.851 µM |
| O=C1C=CC(=O)c2c1cc1ccccc1c2O | 35.3 µM | 21.6 µM | 28.3 µM | 26.6 µM | 26.4 µM | 26.5 µM | 41.3 µM | 25 µM | 24.5 µM | 33.2 µM |  |  |  |  |  |  |  |  |  |  |
| O=C1c2ccccc2C(=O)c2c(NCCNCCO)ccc(NCCNCCO)c21 | 6.92 µM and 9.37 µM and 6.34 µM | 14.9 µM and 20.7 µM and 21.7 µM | 4.89 µM and 8.28 µM and 8.69 µM | 4.19 µM and 3.82 µM and 4.76 µM | 9.12 µM and 21.1 µM and 20.3 µM | 8.52 µM and 13.6 µM and 11.6 µM | 1.91 µM and 3.38 µM and 2.16 µM | 3.42 µM and 6.7 µM and 4.07 µM | 3.34 µM and 2.87 µM and 2.86 µM | 3.43 µM and 2.52 µM and 2.46 µM | 0.195 µM and 0.183 µM and 0.123 µM | 2.98 µM and 7.28 µM and 6.25 µM | 0.718 µM and 1.41 µM and 1.29 µM | 0.422 µM and 0.473 µM and 0.509 µM | 2.4 µM and 2.47 µM and 3.52 µM | 1.9 µM and 2.64 µM and 1.7 µM | 0.127 µM and 0.158 µM and 0.189 µM | 0.864 µM and 1.04 µM and 0.947 µM | 1.41 µM and 1.13 µM and 1.09 µM | 0.649 µM and 0.473 µM and 0.386 µM |
| COc1cccc(C(C#N)NC23CC4CC(CC(C4)C2)C3)c1 (stereo not drawn) | > 100 µM | > 100 µM | > 100 µM | > 100 µM | > 100 µM | > 100 µM | > 100 µM | > 100 µM | > 100 µM | > 100 µM |  |  |  |  |  |  |  |  |  |  |
| Nc1ncnc2c1nc(N)n2C1OC(CO)C(O)C1O (stereo not drawn) | 2.02 µM | 3.36 µM | 2.09 µM | 2.71 µM | 0.867 µM | 0.355 µM | 1.93 µM | 3.98 µM | 2.61 µM | 3.7 µM | 0.331 µM | 1.65 µM | 0.401 µM | 0.311 µM | 0.266 µM | 0.11 µM | 0.454 µM | 1.88 µM | 1.25 µM | 1.88 µM |
| COc1ccc(Oc2nc(Nc3ccc(N4CCOCC4)cc3)ncc2NC(=O)Nc2cc(OC)cc(OC)c2)cc1 | 12.5 µM | 7.98 µM | 7.59 µM | 22.2 µM | 15.3 µM | 14.1 µM | 5.72 µM | 4.69 µM | 3.79 µM | 18.2 µM | 1.86 µM | 1.59 µM | 1.66 µM | 5.48 µM | 1.82 µM | 3.02 µM | 1.31 µM | 1.06 µM | 1.11 µM | 1.65 µM |
| CCc1ccc(Oc2nccc(-c3c(-c4ccc(F)cc4)ncn3C3CCNCC3)n2)cc1 | 13.3 µM | 13.1 µM | 14 µM | 8.53 µM | 14.3 µM | 10.8 µM | 8.49 µM | 9.57 µM | 7.71 µM | 10.7 µM | 5.18 µM | 5.55 µM | 5.83 µM | 4.13 µM | 6.01 µM | 5.46 µM | 4.28 µM | 4.79 µM | 4.22 µM | 3.58 µM |
| O=C1NC(=O)C(N2CCc3ccccc32)=C1c1ccc(Cl)cc1 | > 25 µM | > 25 µM | > 25 µM | > 25 µM | > 25 µM | > 25 µM | > 25 µM | > 25 µM | > 25 µM | > 25 µM | > 25 µM | > 15.5 µM | > 25 µM | > 25 µM | > 25 µM | > 25 µM | > 25 µM | > 25 µM | > 23.2 µM | > 25 µM |
| O=C1/C(=C\c2ccc([N+](=O)[O-])cc2)CS(=O)(=O)C/C1=C/c1ccc([N+](=O)[O-])cc1 | 10.8 µM | 0.845 µM and 1.12 µM | 12.4 µM | 3.94 µM | 1.46 µM | 0.331 µM and 2.51 µM | 2.48 µM | 0.579 µM and 0.363 µM | 3.03 µM | 53.2 µM | 0.35 µM |  | 0.87 µM | 0.284 µM | 0.25 µM | 0.131 µM | 0.256 µM | 0.136 µM | 0.4 µM |  |
